{
  "source": "patent US20240254547A1",
  "about": "“HIGHLY ACCURATE […]” (KAO CORPORATION, priority 2018, published 2024)",
  "key": {"[1]": {"system": "Genomic DNA from TA100 strain of Salmonella typhimurium (S. typhimurium) LT-2", "assay": "Genomic mutation analysis of mutagen-exposed TA100 strain by sequencing with consensus read sequences considering complementary strands", "type": "cell-based", "conditions": "ENU group", "method": "Exposure of cells to ENU was performed in accordance with the pre-incubation method of the Ames test (K. Mortelmans et al. Mutat. Res.—Fundam. Mol. Mech. Mutagen. 455:29-60, 2000). TA100 strain was seeded in 2 mL of Nutrient Broth No. 2 (produced by Oxoid Limited), and subjected to shaking culture at 37° C. and 180 rpm for 4 hours to afford pre-culture solution with an O.D.660 value of 1.0 or higher. ENU (produced by Sigma-Aldrich Co. LLC.) was diluted with dimethylsulfoxide (DMSO; produced by Wako Pure Chemical Industries, Ltd.). Into test tubes, 100 μL of the ENU solution, 500 μL of 0.1 M phosphate buffer, and 100 μL of the pre-culture solution were added (amount of ENU: 62.5, 125, 250, 500, and 1,000 μg/tube), and the resultants were subjected to shaking culture at 100 rpm in a water bath at 37° C. for 20 minutes (ENU group). For a control group, 100 μL of solvent (DMSO) was added instead of the ENU solution. After shaking culture for 20 minutes, the test tubes each containing a culture solution were taken out of the water bath, and 50 μL of each culture solution was added to 2 mL of Nutrient Broth solution aliquoted in advance, and the resultant was further cultured in an incubator at 37° C. and 180 rpm for 14 hours, from which the bacterial suspensions were then collected and centrifuged at 7,500 rpm for 5 minutes, and the supernatants were removed to collect the bacterial cells.\nFrom the bacterial cells obtained in 1) (control group and ENU group), total DNA was collected by using a DNeasy Blood & Tissue Kit (produced by QIAGEN) in accordance with the recommended protocol. The double-stranded DNA concentration of each DNA sample obtained was measured by using a Qubit3.0 Fluorometer (produced by Thermo Fisher Scientific) with a Qubit™ dsDNA BR Assay Kit attached thereto.\nFrom each DNA sample (control group and ENU group) after being subjected to concentration measurement in 2), a plurality of samples each of which was to give 100 ng of DNA were prepared, and each sample was fragmented into pieces having a length of approximately 350 bp on average by using a DNA Shearing System ME220 (produced by Covaris Inc.) in accordance with the recommended protocol. The fragmented DNA obtained was subjected to library preparation by using a TruSeq Nano DNA Library Prep Kit (produced by Illumina, Inc., hereinafter abbreviated as TruSeq) in accordance with the recommended protocol.\nIn library preparation, the DNA fragments obtained were each labeled with adapter sequences each including a label sequence at a terminal, as described in Example 1. The resultant was subjected to PCR under different conditions listed in Table 1 to prepare libraries for sequencing, thus preparing labeled libraries for sequencing with different conditions. Adapter sequences attached to the TruSeq from Illumina, Inc. were used. […] Thus, one of two adapters was bound to each fragment in each library. […] Each of the resulting ligation reaction solutions was purified in accordance with the recommended protocol, and then subjected to concentration measurement for ligation products by using a High Sensitivity D5000 Kit in an Agilent 4200 TapeStation (produced by Agilent Technologies). […] The mixed solution obtained was subjected to purification through PCR in accordance with the recommended protocol. To adjust difference in amount of input DNA in PCR, each sample was amplified through PCR cycles the number of which is shown in Table 1 to adjust the amount of DNA in the library.\nEach of the libraries prepared in 3) was subjected to sequencing by using a HiSeq 2500 (produced by Illumina, Inc.), where the read length was set to 2*125 bp for Library Nos. 1 to 8 shown in Table 1, and to 2*100 bp for Library Nos. 9 to 14. Sequencing data of approximately 10 Gbp were acquired on average per library.\nRaw read sequences acquired through sequencing were edited and subjected to mutation analysis in accordance with the analysis flow illustrated above in Schematic Diagram 4. […]"}, "gpt gene": {"system": "gpt gene", "assay": "gpt-assay, gene mutation frequency (OECD TG488)", "type": "in vivo, mouse (C57BL/6JJmsSlc-Tg (gpt delta))", "conditions": "bone marrow", "method": "Male TG mice which were 7 to 9 weeks old at initiation of administration were used. ENU (produced by Toronto Research Chemicals, Inc.) was dissolved in saline to a concentration of 15.0 mg/mL. By using a plastic syringe and a 25 G injection needle, […] was intraperitoneally administered to the mice once per day (ENU 150 mg/kg/day) for 5 days (ENU group). Saline was administered to a control group. Seven days after the final administration, the animals were each euthanized to resect the femur, and genomic DNA was extracted from the bone marrow by using a REcoverEase DNA Isolation Kit (produced by Agilent Technologies) in accordance with the recommended protocol. The double-stranded DNA concentration of the resulting DNA was measured by using a Qubit3.0 Fluorometer (produced by Thermo Fisher Scientific) with a Qubit™ dsDNA BR Assay Kit attached thereto.\nDNA was extracted from the bone marrow of each of the mice obtained in 1) by using phenol/chloroform. For the extract DNA, gene mutation frequency was calculated by using the gpt gene introduced into each TG mouse in accordance with OECD Guidelines for the Testing of Chemicals 488 (OECD TG488) (gpt-assay). […] From the number of colonies formed on the selective medium (mutant colonies) and the number of colonies formed on the medium for titer determination (total colonies), mutation frequency (*10^−6) was calculated. […]"}},
  "data": [
    {"compound": "CCN(N=O)C(N)=O", "note": "[ENU, ethylnitrosourea]", "values": [
      {"measurement": "GC to AT mutation frequency", "setting": "[1]; 10 Gbp sequencing data, Library No. 1, PCR input DNA 20000 amol", "value": "10.48 /10^5 bp"},
      {"measurement": "GC to AT mutation frequency", "setting": "[1]; 10 Gbp sequencing data, Library No. 4, PCR input DNA 2500 amol", "value": "37.70 /10^5 bp"},
      {"measurement": "GC to AT mutation frequency", "setting": "[1]; 10 Gbp sequencing data, Library No. 5, PCR input DNA 1250 amol", "value": "46.50 /10^5 bp"},
      {"measurement": "GC to AT mutation frequency", "setting": "[1]; 10 Gbp sequencing data, Library No. 6, PCR input DNA 625 amol", "value": "55.30 /10^5 bp"},
      {"measurement": "GC to AT mutation frequency", "setting": "[1]; 10 Gbp sequencing data, Library No. 7, PCR input DNA 313 amol", "value": "56.57 /10^5 bp"},
      {"measurement": "GC to AT mutation frequency", "setting": "[1]; 10 Gbp sequencing data, Library No. 8, PCR input DNA 156 amol", "value": "60.42 /10^5 bp"},
      {"measurement": "GC to AT mutation frequency", "setting": "[1]; 10 Gbp sequencing data, Library No. 9, PCR input DNA 156 amol", "value": "61.01 /10^5 bp"},
      {"measurement": "GC to AT mutation frequency", "setting": "[1]; 10 Gbp sequencing data, Library No. 10, PCR input DNA 78 amol", "value": "63.62 /10^5 bp"},
      {"measurement": "GC to AT mutation frequency", "setting": "[1]; 10 Gbp sequencing data, Library No. 11, PCR input DNA 39 amol", "value": "63.38 /10^5 bp"},
      {"measurement": "GC to AT mutation frequency", "setting": "[1]; 10 Gbp sequencing data, Library No. 12, PCR input DNA 20 amol", "value": "63.89 /10^5 bp"},
      {"measurement": "GC to AT mutation frequency", "setting": "[1]; 10 Gbp sequencing data, Library No. 13, PCR input DNA 10 amol", "value": "63.35 /10^5 bp"},
      {"measurement": "GC to AT mutation frequency", "setting": "[1]; 10 Gbp sequencing data, Library No. 14, PCR input DNA 5 amol", "value": "60.05 /10^5 bp"},
      {"measurement": "Frequency of GC→AT mutation compared with the other mutation patterns", "setting": "[1]; 10 Gbp sequencing data, each library", "value": "highest"},
      {"measurement": "Relative mutation frequency to 20 amol (GC to AT)", "setting": "[1]; Library No. 1, PCR input DNA 20000 amol", "value": 16.41},
      {"measurement": "Relative mutation frequency to 20 amol (GC to AT)", "setting": "[1]; Library No. 4, PCR input DNA 2500 amol", "value": 59.01},
      {"measurement": "Relative mutation frequency to 20 amol (GC to AT)", "setting": "[1]; Library No. 5, PCR input DNA 1250 amol", "value": 72.79},
      {"measurement": "Relative mutation frequency to 20 amol (GC to AT)", "setting": "[1]; Library No. 6, PCR input DNA 625 amol", "value": 86.56},
      {"measurement": "Relative mutation frequency to 20 amol (GC to AT)", "setting": "[1]; Library No. 7, PCR input DNA 313 amol", "value": 88.55},
      {"measurement": "Relative mutation frequency to 20 amol (GC to AT)", "setting": "[1]; Library No. 8, PCR input DNA 156 amol", "value": 94.57},
      {"measurement": "Relative mutation frequency to 20 amol (GC to AT)", "setting": "[1]; Library No. 9, PCR input DNA 156 amol", "value": 95.50},
      {"measurement": "Relative mutation frequency to 20 amol (GC to AT)", "setting": "[1]; Library No. 10, PCR input DNA 78 amol", "value": 99.59},
      {"measurement": "Relative mutation frequency to 20 amol (GC to AT)", "setting": "[1]; Library No. 11, PCR input DNA 39 amol", "value": 99.20},
      {"measurement": "Relative mutation frequency to 20 amol (GC to AT)", "setting": "[1]; Library No. 12, PCR input DNA 20 amol (reference)", "value": 100.00},
      {"measurement": "Relative mutation frequency to 20 amol (GC to AT)", "setting": "[1]; Library No. 13, PCR input DNA 10 amol", "value": 99.16},
      {"measurement": "Relative mutation frequency to 20 amol (GC to AT)", "setting": "[1]; Library No. 14, PCR input DNA 5 amol", "value": 94.00},
      {"measurement": "Mean Mutant Frequency (gpt-assay)", "setting": "gpt gene; ENU 150 mg/kg/day intraperitoneally for 5 days, n=4", "value": "126.33 *10^−6"},
      {"measurement": "Gene mutation frequency (gpt-assay) versus control group", "setting": "gpt gene; ENU 150 mg/kg/day", "value": "Significant increase"}
    ]}
  ]
}
